{
  "source": "patent US7531195B2",
  "about": "“Schisandrin B preparation” (priority 2005, dated 2009)",
  "key": {"[1]": {"tested_on": "mitochondria of brain, heart, liver and skeletal muscle", "assay": "Ca2+-induced mitochondrial permeability transition (MPT) in tissues of young adult and middle-aged rats", "format": "in vivo, rat", "procedure": "Young adult (8-10 week-old) and middle-aged (12-14 month-old retired breeder) female Sprague-Dawley rats were maintained under a 12-h dark/light cycle at about 22° C. and allowed food and water ad libitum. Experimental protocols were approved by the Research Practice Committee at the Hong Kong University of Science & Technology, Hong Kong. Animals were randomly divided into groups, with 5 animals in each. In the treatment groups, rats were intragastrically administered with Sch B (dissolved/suspended in olive oil) at a daily dose of 10 mg/kg for 15 days. The daily dose is approximated to 1.14 mg/kg for humans after adjusting the inter-species difference in drug distribution in the body. Untreated control animals received olive oil only. Twenty-four hours after the last dosing, animals were sacrificed by decapitation and the whole brain, heart ventricular, liver and skeletal muscle (hind limb) tissues were excised and subjected to biochemical analysis. […]\nTissue homogenates were prepared as described above. […] An aliquot (1.6 ml) of mitochondrial sample (0.5 mg protein/ml) was prepared by mixing mitochondrial fraction with incubation buffer (125 mM sucrose, 65 mM KCl, 10 mM Hepes, pH 7.2, 5 mM succinate (freshly prepared) and 5 μM rotenone (freshly prepared). Aliquots (200 μl) of mitochondrial sample were mixed with 10 μl of cyclosporin A (5 μM in 0.5% ethanol final concentration) or incubation buffer. The mixtures were incubated at 30° C. for 5 min. An aliquot (10 μl) of calcium chloride solution (1 μM final concentration) was then added, and the mixtures were incubated at 30° C. for 5 min. Aliquots (180 μl) of the mixtures were added into 96-well micro-titer plate, and the initial absorbance of the mixtures at 520 nm was monitored for 5 min at 30° C. The swelling reaction was then started by adding 20 μl of K3PO4 (0.5 mM, pH 7.2), and the absorbance at 520 nm of the reaction mixtures was read every 2 min for 30 min at 30° C., using Victor V^2 Multi-Label Counter. […]"}, "[2]": {"tested_on": "Isolated-Perfused Rat Heart", "assay": "Myocardial ischemia-reperfusion injury (LDH leakage), isolated-perfused heart of young rats", "format": "in vivo", "conditions": "35 days", "procedure": "Male/Female adult Sprague-Dawley rats (˜10 weeks old) were maintained under a 12-h dark/light cycle at about 22° C. and allowed food and water ad libitum. Animals were randomly divided into groups, with at least 5 animals in each. In the pretreatment groups, rats were treated intragastrically with (−) Schisandrin B at a daily dose of 1 or 10 mg/kg for 35 days. Control animals received oil only (10 ml/kg). Twenty-four hours following the last dosing, hearts were isolated from control or drug-pretreated rats and then subjected to Langendorff perfusion as described below.\nThe heart was excised quickly and immediately immersed in ice-cold and heparinized (50 unit/ml) saline. The aorta was cannulated and then transferred to a warm and moistured chamber of the perfusion apparatus. The heart was retrogradely perfused according to Langendorff method as described (Yim and Ko 1999).\nCoronary effluent was collected in 1-min fractions at increasing time intervals during the course of equilibration and reperfusion. The fractions were immediately put on ice until assay for lactate dehydrogenase (LDH) activity. The extent of LDH leakage during the reperfusion period, an indirect index of myocardial injury, was estimated by computing the area under the curve of the graph plotting the percent LDH activity (with respect to the mean pre-ischemic value measured during the equilibration period) against the reperfusion time (1-20 min), as described (Yim and Ko 1999). Immediately after the I-R procedure, heart ventricular tissue samples were obtained for biochemical analysis."}, "Hsp70": {"tested_on": "Hsp70", "assay": "Tissue Hsp70 level in young female rats (Western blot)", "format": "in vivo, rat", "conditions": "10 mg/kg daily, 15 days", "procedure": "Female Sprague-Dawley rats (8 weeks old) were maintained under a 12-h dark/light cycle at about 22° C. and allowed food and water ad libitum. Drug treated animals received a daily bolus dose of (−) Schisandrin B, α-lipoic acid (α-LA) or α-tocopherol (α-Toc) at 10, 5 and 70 mg/kg, respectively, for 15 days. The dosages were determined with reference to the equivalent amount of crude herb prescribed for human or the daily recommended intake in health supplements. The control animals received olive oil only. Twenty-four hours after the last dose, the pentobarbital-anesthetized animals were sacrificed by cardiac excision, and brain. heart, liver and skeletal muscle tissues were obtained.\nHsp25 and Hsp70 levels was estimated by Western blot analysis using specific antibodies (anti-Hsp25, catalog #SPA-801; anti-Hsp70, catalog #SPA-812) from StressGen (Vancouver, BC, Canada) following SDS-PAGE analysis of the nuclear-free tissue homogenates, using a separating gel of 10% acrylamide as described in Ip et. al. (2001). Hsp25/27 and Hsp70 (human recombinant proteins from StressGen) and actin (bovine muscle from Sigma) were used as markers for reference. […] All immuno-blots were analyzed by densitometry, and the amounts (arbitrary units) of Hsp were normalized with reference to actin levels (arbitrary units) in the sample."}},
  "note": "Marks after values point to notes of the source that are not given here.",
  "data": [
    {"smiles": "COc1cc2c(c(OC)c1OC)-c1c(cc3c(c1OC)OCO3)CC(C)C(C)C2", "note": "(single isomer, unassigned; (-)) [(−) Sch B, (−) Schisandrin B]", "values": [
      {"measurement": "extent of inhibition of sensitivity to Ca2+-induced MPT", "setting": "[1]; middle-aged rats, all tissues except liver, range among tissues", "value": "15-29%"},
      {"measurement": "sensitivity to Ca2+-induced MPT in liver", "setting": "[1]; middle-aged rats, liver", "value": "did not show detectable change"},
      {"measurement": "decrease of sensitivity to Ca2+-induced MPT", "setting": "[1]; young adult rat tissues, 10 mg/kg/day x 15, range among tissues", "value": "15-48%"},
      {"measurement": "LDH Leakage", "setting": "[2]; I-R, female, 1 mg/kg daily", "value": "2861 ± 70.6^b AU"},
      {"measurement": "LDH Leakage, percent protection vs unpretreated control", "setting": "[2]; I-R, female, 1 mg/kg daily", "value": "(31%)"},
      {"measurement": "LDH Leakage", "setting": "[2]; I-R, female, 10 mg/kg daily", "value": "2023 ± 83.1^b AU"},
      {"measurement": "LDH Leakage, percent protection vs unpretreated control", "setting": "[2]; I-R, female, 10 mg/kg daily", "value": "(60%)"},
      {"measurement": "LDH Leakage", "setting": "[2]; I-R, male, 1 mg/kg daily", "value": "3638 ± 125^a AU"},
      {"measurement": "LDH Leakage, percent protection vs unpretreated control", "setting": "[2]; I-R, male, 1 mg/kg daily", "value": "(37%)"},
      {"measurement": "LDH Leakage", "setting": "[2]; I-R, male, 10 mg/kg daily", "value": "2775 ± 55.8^a AU"},
      {"measurement": "LDH Leakage, percent protection vs unpretreated control", "setting": "[2]; I-R, male, 10 mg/kg daily", "value": "(57%)"},
      {"measurement": "LDH Leakage", "setting": "[2]; NON-I-R, female, 1 mg/kg daily", "value": "776 ± 22.1", "unit": "AU"},
      {"measurement": "LDH Leakage", "setting": "[2]; NON-I-R, female, 10 mg/kg daily", "value": "813 ± 14.0", "unit": "AU"},
      {"measurement": "LDH Leakage", "setting": "[2]; NON-I-R, male, 1 mg/kg daily", "value": "804 ± 18.0", "unit": "AU"},
      {"measurement": "LDH Leakage", "setting": "[2]; NON-I-R, male, 10 mg/kg daily", "value": "820 ± 13.8", "unit": "AU"},
      {"measurement": "Heat Shock Protein Level, Hsp70", "setting": "Hsp70; BRAIN", "value": "0.49 ± 0.05", "unit": "AU"},
      {"measurement": "Hsp70 level, percent increase vs untreated control", "setting": "Hsp70; BRAIN", "value": "(77%)"},
      {"measurement": "Heat Shock Protein Level, Hsp70", "setting": "Hsp70; HEART", "value": "0.71 ± 0.03", "unit": "AU"},
      {"measurement": "Hsp70 level, percent increase vs untreated control", "setting": "Hsp70; HEART", "value": "(17%)"},
      {"measurement": "Heat Shock Protein Level, Hsp70", "setting": "Hsp70; LIVER", "value": "0.69 ± 0.001", "unit": "AU"},
      {"measurement": "Hsp70 level, percent increase vs untreated control", "setting": "Hsp70; LIVER", "value": "(45%)"},
      {"measurement": "Heat Shock Protein Level, Hsp70", "setting": "Hsp70; SKELETAL MUSCLE", "value": "0.69 ± 0.07", "unit": "AU"},
      {"measurement": "Hsp70 level, percent increase vs untreated control", "setting": "Hsp70; SKELETAL MUSCLE", "value": "(57%)"}
    ]}
  ]
}
